Test results published in patent US6706663B2, “Herbicidal 3-heterocyclic substituted benzisothiazole and benzisoxazole compounds” (Wyeth, priority 2000, dated 2004).

What was measured:
[1] = system: ABUTH (Abutilon theophrasti); experiment: Postemergence herbicidal evaluation; type: in vivo, Medic.; details: postemergence
Method in brief: (§1)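 Seedlings grown about two weeks in flats, sprayed, then kept under standard greenhouse care. Rated visually 4–5 weeks after treatment on a 0–9 scale (stand, vigour, malformation, size, chlorosis, overall appearance) relative to untreated control; repeat tests averaged.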

[2] = system: AMBEL (Ambrosia artemisifolia); experiment: Postemergence herbicidal evaluation; type: in vivo, L.; details: postemergence
Method in brief: as §1

[3] = system: CASOB (Cassia obtusifolia); experiment: Postemergence herbicidal evaluation; type: in vivo, L.; details: postemergence
Method in brief: as §1

[4] = system: CHEAL (Chenopodium album); experiment: Postemergence herbicidal evaluation; type: in vivo, L.; details: postemergence
Method in brief: as §1

[5] = system: GALAP (Galium aparine); experiment: Postemergence herbicidal evaluation; type: in vivo; details: postemergence
Method in brief: as §1

[6] = system: ECHCG (Echinochloa crus-galli); experiment: Postemergence herbicidal evaluation; type: in vivo, (L.) Beau; details: postemergence
Method in brief: as §1

[7] = system: GLXMAW (Soybean, Williams); experiment: Postemergence herbicidal evaluation; type: in vivo, Glycine max, (L.) Merr. cv Williams; details: postemergence
Method in brief: as §1

[8] = system: ORYSAT (Rice, Tebonnet); experiment: Postemergence herbicidal evaluation; type: in vivo, Oryza sativa, (L.) Tebonnet; details: postemergence
Method in brief: as §1

[9] = system: ZEAMX (Corn, Field); experiment: Postemergence herbicidal evaluation; type: in vivo, Zea mays, L.; details: postemergence
Method in brief: as §1

[10] = system: ABUTH (Abutilon theophrasti); experiment: Preemergence herbicidal evaluation; type: in vivo, Medic.; details: rated 4-5 weeks after treatment
[11] = system: AMBEL (Ambrosia artemisifolia); experiment: Preemergence herbicidal evaluation; type: in vivo, L.; details: rated 4-5 weeks after treatment
Method in brief: (§2)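 Visual 0–9 rating versus control (stand, vigor, malformation, size, chlorosis, overall appearance), scored four to five weeks post-treatment. Preemergence spray of aqueous acetone solution onto freshly seeded soil cups; plants grown under conventional greenhouse care.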

[12] = system: CASOB (Cassia obtusifolia); experiment: Preemergence herbicidal evaluation; type: in vivo, L.; details: rated 4-5 weeks after treatment
Method in brief: as §2

[13] = system: CHEAL (Chenopodium album); experiment: Preemergence herbicidal evaluation; type: in vivo, L.; details: rated 4-5 weeks after treatment
Method in brief: as §2

[14] = system: IPOHE (Ipomoea hederacea); experiment: Preemergence herbicidal evaluation; type: in vivo, (L.) Jacq.; details: rated 4-5 weeks after treatment
[15] = system: ORYSAT (Rice, Tebonnet); experiment: Preemergence herbicidal evaluation; type: in vivo, Oryza sativa, (L.) Tebonnet; details: rated 4-5 weeks after treatment
[16] = system: TRZAWR (Wheat, Winter, cv Riband); experiment: Preemergence herbicidal evaluation; type: in vivo, Triticum aestivum; details: rated 4-5 weeks after treatment
Method in brief: as §2

[17] = system: CYPSE (Cyperus serotinus); experiment: Flooded paddy, preemergence weed control; type: in vivo, Rottb.; details: rated 3-4 weeks after treatment, 0-9 rating scale
Method in brief: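 Herbicidal effect was scored visually on a 0–9 scale against an untreated control 3–4 weeks after treatment. Compounds were applied preemergence as 50/50 v/v aqueous/acetone mixtures into flood water (1.5–3 cm deep over silt loam), at roughly 0.0080 to 0.1250 kg/ha active ingredient.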

[18] = system: SAGPY (Sagittaria pygmaea); experiment: Flooded paddy, preemergence weed control; type: in vivo, L.; details: rated 3-4 weeks after treatment, 0-9 rating scale
Method in brief: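 Greenhouse paddy test, preemergence. Seeds planted in the top 0.5 cm of silt loam soil, which remained flooded at 1.5–3 cm depth. Scored 0-9 by visual comparison with control.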

[19] = system: ORYSAT (Rice, Tebonnet); experiment: Flooded paddy, post-transplant rice tolerance; type: in vivo, Oryza sativa, (L.) Tebonnet; details: flooded paddy, post-transplant rice, rated 3-4 weeks after treatment, 0-9 rating scale
Method in brief: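 Steps: transplant two ten-day-old seedlings into silt loam; flood to 1.5-3 cm above soil; apply herbicide post-transplant; maintain water on greenhouse benches; rate stand, vigor, malformation, size and chlorosis on a 0-9 visual scale versus control.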

## CC1CC(C)(C)OC(c2nsc3ccc(-n4c(=O)cc(C(F)(F)F)n(C)c4=O)cc23)O1 (centres unmarked) [Compound 55, 1-methyl-6-(trifluoromethyl)-3-[3-(4,4,6-trimethyl-m-dioxan-2-yl)-1,2-benzisothiazol-5-yl]uracil]
[1]; rate 0.0320 kg/ha
  ABUTH herbicidal rating: 9.0
[1]; rate 0.0620 kg/ha
  ABUTH herbicidal rating: 9.0
[2]; rate 0.0320 kg/ha
  AMBEL herbicidal rating: 9.0
[2]; rate 0.0620 kg/ha
  AMBEL herbicidal rating: 9.0
[3]; rate 0.0320 kg/ha
  CASOB herbicidal rating: 2.0
[3]; rate 0.0620 kg/ha
  CASOB herbicidal rating: 1.0
[4]; rate 0.0320 kg/ha
  CHEAL herbicidal rating: 5.0
[4]; rate 0.0620 kg/ha
  CHEAL herbicidal rating: 4.0
[5]; rate 0.0320 kg/ha
  GALAP herbicidal rating: 2.0
[5]; rate 0.0620 kg/ha
  GALAP herbicidal rating: 2.0
[6]; rate 0.0320 kg/ha
  ECHCG herbicidal rating: 1.0
[6]; rate 0.0620 kg/ha
  ECHCG herbicidal rating: 1.0
[7]; rate 0.0320 kg/ha
  GLXMAW herbicidal rating: 4.5
[7]; rate 0.0620 kg/ha
  GLXMAW herbicidal rating: 5.0
[8]; rate 0.0320 kg/ha
  ORYSAT herbicidal rating: 3.0
[8]; rate 0.0620 kg/ha
  ORYSAT herbicidal rating: 4.5
[9]; rate 0.0320 kg/ha
  ZEAMX herbicidal rating: 4.5
[9]; rate 0.0620 kg/ha
  ZEAMX herbicidal rating: 5.0
[10]; Rate 0.0620 kg/ha
  Preemergence herbicidal rating ABUTH: 9.0
[10]; Rate 0.1250 kg/ha
  Preemergence herbicidal rating ABUTH: 9.0
[10]; Rate 0.2500 kg/ha
  Preemergence herbicidal rating ABUTH: 9.0
[11]; Rate 0.0620 kg/ha
  Preemergence herbicidal rating AMBEL: 9.0
[11]; Rate 0.1250 kg/ha
  Preemergence herbicidal rating AMBEL: 9.0
[11]; Rate 0.2500 kg/ha
  Preemergence herbicidal rating AMBEL: 9.0
[12]; Rate 0.0620 kg/ha
  Preemergence herbicidal rating CASOB: 3.5
[12]; Rate 0.1250 kg/ha
  Preemergence herbicidal rating CASOB: 7.5
[12]; Rate 0.2500 kg/ha
  Preemergence herbicidal rating CASOB: 7.0
[13]; Rate 0.0620 kg/ha
  Preemergence herbicidal rating CHEAL: 9.0
[13]; Rate 0.1250 kg/ha
  Preemergence herbicidal rating CHEAL: 9.0
[13]; Rate 0.2500 kg/ha
  Preemergence herbicidal rating CHEAL: 9.0
[14]; Rate 0.0620 kg/ha
  Preemergence herbicidal rating IPOHE: 7.5
[14]; Rate 0.1250 kg/ha
  Preemergence herbicidal rating IPOHE: 7.5
[14]; Rate 0.2500 kg/ha
  Preemergence herbicidal rating IPOHE: 8.0
[15]; Rate 0.0620 kg/ha
  Preemergence herbicidal rating ORYSAT: 7.5
[15]; Rate 0.1250 kg/ha
  Preemergence herbicidal rating ORYSAT: 9.0
[15]; Rate 0.2500 kg/ha
  Preemergence herbicidal rating ORYSAT: 9.0
[16]; Rate 0.0620 kg/ha
  Preemergence herbicidal rating TRZAWR: 8.0
[16]; Rate 0.1250 kg/ha
  Preemergence herbicidal rating TRZAWR: 9.0
[16]; Rate 0.2500 kg/ha
  Preemergence herbicidal rating TRZAWR: 9.0
[17]; rate 0.0320 kg/ha
  herbicidal rating, CYPSE: 9.0
[17]; rate 0.1250 kg/ha
  herbicidal rating, CYPSE: 9.0
[18]; rate 0.0080 kg/ha
  herbicidal rating, SAGPY: 0.0
[18]; rate 0.0320 kg/ha
  herbicidal rating, SAGPY: 0.0
[18]; rate 0.1250 kg/ha
  herbicidal rating, SAGPY: 7.0
[19]; rate 0.0080 kg/ha
  herbicidal rating, ORYSAT (rice tolerance): 3.0
[19]; rate 0.0320 kg/ha
  herbicidal rating, ORYSAT (rice tolerance): 4.5
[19]; rate 0.1250 kg/ha
  herbicidal rating, ORYSAT (rice tolerance): 9.0
